Assay results taken from publication PMC12030165, “Bioactivity of Synthesized Trifluoromethyl Thioxanthone Analogues” (Pharmaceuticals, 2025).

What was measured:
[1] = molecular target: T1, porcine pancreatic lipase (Sus scrofa, UniProt P00591); assay: Inhibition assay of pancreatic lipase enzyme (PNPB); format: biochemical
T1 construct: purchased Sigma-Aldrich (Missouri, MO, USA)
T1 sequence (P00591 1-450): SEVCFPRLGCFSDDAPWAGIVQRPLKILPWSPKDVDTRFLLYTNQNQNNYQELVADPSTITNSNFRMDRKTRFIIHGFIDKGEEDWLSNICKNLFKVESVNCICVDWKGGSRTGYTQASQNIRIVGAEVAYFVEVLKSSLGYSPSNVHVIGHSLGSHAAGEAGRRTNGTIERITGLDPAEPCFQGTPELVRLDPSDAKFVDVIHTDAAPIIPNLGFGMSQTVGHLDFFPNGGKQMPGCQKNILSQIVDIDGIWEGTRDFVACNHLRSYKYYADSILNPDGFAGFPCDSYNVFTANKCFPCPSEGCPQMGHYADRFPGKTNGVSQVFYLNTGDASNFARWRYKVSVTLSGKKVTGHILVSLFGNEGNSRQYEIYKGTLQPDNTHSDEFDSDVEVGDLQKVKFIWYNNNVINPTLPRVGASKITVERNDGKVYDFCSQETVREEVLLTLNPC
Protocol: A stock solution of 1 mg/mL (1000 μg/mL) was prepared for each product using 10% DMSO. This stock solution created […] different concentrations at 20, 50, and 70 μg/mL. A fresh stock solution of pancreatic lipase enzyme was prepared immediately before use. […] In the experiment, 0.1 mL of the 1 mg/mL porcine pancreatic lipase solution was added to test tubes containing 0.2 mL of each of the various concentrations of the products. The mixtures were then brought to a final volume of 1 mL by adding a Tris-HCl solution (pH 7.4) and were incubated at 25 °C for 15 min. After the incubation period, 0.1 mL of the PNPB solution was added to each test tube, and the mixtures were incubated again for 30 min at 37 °C. The activity of pancreatic lipase was measured by assessing the hydrolysis of p-nitrophenyl butyrate to p-nitrophenol at a wavelength of 410 nm using a UV-visible spectrophotometer.

[2] = DPPH antioxidant activity assay
Protocol: To evaluate four synthesized compounds and Trolox (as a positive control), a 1 mg/mL concentration in methanol was first made from phenyl alcohol. The prepared solution was produced in concentrations of 1, 2, 3, 5, 7, 10, 20, 30, 50, and 80 µg/mL. The DPPH reagent was then diluted in 0.002% w/v methanol and combined in a […] ratio with the previously produced working concentrations. A blank solution of 100% methanol was used. All solutions were incubated at room temperature for 30 min in a dark environment. Their absorbance values were then determined using a UV-visible spectrophotometer set at a wavelength of 517 nm. The antioxidant capacity of each chemical compound fraction and Trolox were calculated using the following formula:% inhibition = ((Abs blank − Abs Sample)/Abs Blank) × 100 where:
Abs blank: Absorbance value of the control reaction containing all reagents except the synthesized compound.
Abs sample: The absorbance value of the synthesized compound [48].

[3] = molecular target: T2, porcine pancreatic α-amylase (Sus scrofa, UniProt P00690); assay: α-Amylase inhibition assay (DNSA); format: biochemical
T2 construct: purchased MP Biochemicals (Illkirch, France)
T2 sequence (P00690 16-511): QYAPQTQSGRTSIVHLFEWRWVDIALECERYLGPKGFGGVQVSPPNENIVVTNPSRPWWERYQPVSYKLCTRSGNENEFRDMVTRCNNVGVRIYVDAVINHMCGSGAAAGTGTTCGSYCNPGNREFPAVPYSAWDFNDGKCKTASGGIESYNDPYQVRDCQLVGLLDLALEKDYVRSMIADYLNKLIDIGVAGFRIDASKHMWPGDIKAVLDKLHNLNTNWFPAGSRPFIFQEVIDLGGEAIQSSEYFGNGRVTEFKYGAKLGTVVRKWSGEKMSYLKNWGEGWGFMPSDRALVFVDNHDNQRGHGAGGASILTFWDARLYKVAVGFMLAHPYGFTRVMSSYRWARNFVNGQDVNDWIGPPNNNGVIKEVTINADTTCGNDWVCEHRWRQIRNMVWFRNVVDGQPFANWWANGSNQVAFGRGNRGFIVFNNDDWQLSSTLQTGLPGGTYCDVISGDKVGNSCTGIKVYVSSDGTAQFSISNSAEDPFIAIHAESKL
Protocol: Each product was initially dissolved in a few milliliters of 10% DMSO and then further diluted in a buffer solution (0.02 M Na2HPO4/NaH2PO4, 0.006 M NaCl, at pH 6.9) to prepare stock solutions at a concentration of 1000 µg/mL. From these stock solutions, further dilutions were made to obtain concentrations of 20, 50, and 70 µg/mL, using 10% DMSO as a diluent. A porcine pancreatic α-amylase enzyme solution was prepared at 2 units/mL concentration in 10% DMSO. For the working solutions, 0.2 mL of the enzyme solution was mixed with 0.2 mL of each product, and the mixture was incubated for 10 min at 30 °C. Following the incubation, 0.2 mL of a freshly prepared 1% starch aqueous solution was added to each working solution, which was then incubated for an additional 3 min. The reaction was halted by adding 0.2 mL of dinitrosalicylic acid (DNSA) yellow color reagent. Each working solution was diluted with 5 mL of distilled water and boiled for 10 min in a water bath at 90 °C. After cooling the mixture to room temperature, the absorbance was measured at 540 nm. The blank control was prepared similarly but replaced the product fraction with 0.2 mL of the buffer as mentioned above. Acarbose was used as the standard reference and was subjected to the same experimental procedures. The α-amylase inhibitory activity was calculated using the following equation [49]:% of α amylase inhibition = (AB − AE)/AB × 100%

OC1(c2ccccc2)c2ccccc2Sc2ccc(C(F)(F)F)cc21 (stereo not drawn) [Compound 1, 9-phenyl-2-(trifluoromethyl)-9H-thioxanthen-9-ol]
IC50 [1]: 176 µM
% inhibition of DPPH radical (radical scavenging) ([2]; 1 µg/mL): 7.1 ± 1.2%
% inhibition of DPPH radical (radical scavenging) ([2]; 2 µg/mL): 7.6 ± 2.3%
% inhibition of DPPH radical (radical scavenging) ([2]; 3 µg/mL): 8.2 ± 1.5%
% inhibition of DPPH radical (radical scavenging) ([2]; 5 µg/mL): 8.6 ± 3.1%
% inhibition of DPPH radical (radical scavenging) ([2]; 7 µg/mL): 8.9 ± 2.3%
% inhibition of DPPH radical (radical scavenging) ([2]; 10 µg/mL): 9.3 ± 1.6%
% inhibition of DPPH radical (radical scavenging) ([2]; 20 µg/mL): 9.9 ± 2.5%
% inhibition of DPPH radical (radical scavenging) ([2]; 30 µg/mL): 12.6 ± 3.2%
% inhibition of DPPH radical (radical scavenging) ([2]; 50 µg/mL): 12.9 ± 2.6%
% inhibition of DPPH radical (radical scavenging) ([2]; 80 µg/mL): 16.3 ± 4.3%
IC50 [3]: 283 µM

OC1(Cc2ccccc2)c2ccccc2Sc2ccc(C(F)(F)F)cc21 (stereo not drawn) [Compound 2, 9-benzyl-2-(trifluoromethyl)-9H-thioxanthen-9-ol]
IC50 [1]: 111 ± 7.5 µM
% inhibition of DPPH radical (radical scavenging) ([2]; 1 µg/mL): 36.3 ± 2.4%
% inhibition of DPPH radical (radical scavenging) ([2]; 2 µg/mL): 37.3 ± 3.9%
% inhibition of DPPH radical (radical scavenging) ([2]; 3 µg/mL): 39.3 ± 4.2%
% inhibition of DPPH radical (radical scavenging) ([2]; 5 µg/mL): 39.5 ± 3.4%
% inhibition of DPPH radical (radical scavenging) ([2]; 7 µg/mL): 39.7 ± 3.6%
% inhibition of DPPH radical (radical scavenging) ([2]; 10 µg/mL): 40.1 ± 4.9%
% inhibition of DPPH radical (radical scavenging) ([2]; 20 µg/mL): 40.7 ± 2.5%
% inhibition of DPPH radical (radical scavenging) ([2]; 30 µg/mL): 40.7 ± 3.8%
% inhibition of DPPH radical (radical scavenging) ([2]; 50 µg/mL): 41.6 ± 5.1%
% inhibition of DPPH radical (radical scavenging) ([2]; 80 µg/mL): 42.2 ± 3.9%
IC50 [3]: 60.2 ± 0.8 µM

S-(9-benzyl-2-(trifluoromethyl)-9H-thioxanthen-9-yl)-L-cysteine [Compound 3]
IC50 [1]: 277 µM
% inhibition of DPPH radical (radical scavenging) ([2]; 1 µg/mL): 31.3 ± 2.3%
% inhibition of DPPH radical (radical scavenging) ([2]; 2 µg/mL): 36.4 ± 3.5%
% inhibition of DPPH radical (radical scavenging) ([2]; 3 µg/mL): 39.9 ± 3.6%
% inhibition of DPPH radical (radical scavenging) ([2]; 5 µg/mL): 39.9 ± 4.1%
% inhibition of DPPH radical (radical scavenging) ([2]; 7 µg/mL): 40.1 ± 3.8%
% inhibition of DPPH radical (radical scavenging) ([2]; 10 µg/mL): 40.2 ± 5.1%
% inhibition of DPPH radical (radical scavenging) ([2]; 20 µg/mL): 40.4 ± 5.2%
% inhibition of DPPH radical (radical scavenging) ([2]; 30 µg/mL): 41.9 ± 4.9%
% inhibition of DPPH radical (radical scavenging) ([2]; 50 µg/mL): 42.9 ± 3.2%
% inhibition of DPPH radical (radical scavenging) ([2]; 80 µg/mL): 46.6 ± 2.4%
IC50 of the α-Amylase inhibition activity [3]: no inhibitory effect
